Measurements published in US20140235444A1, “SYNERGISTIC SUPRESSION OF GRASS SEEDHEAD PRODUCTION FROM APPLICATIONS OF AMINOCYCLOPYRACHLOR AND METSULFURON” (Dow AgroSciences LLC, priority 2013, published 2014).

Test system: X fescue in a Kentucky blue grass mix
Experiment: Field trial, prevention or suppression of grass seedhead production, postemergence foliar application
Format: in vivo
Settings: 12 days after application, scale 0-100% vs untreated control
Method: Field trials were conducted with applications made to established pastures having X fescue in a Kentucky blue grass mix. The target plants were treated with postemergence foliar applications when they were approximately 6-10 inches tall. All treatments were applied using a randomized complete block trial design, with four replications per treatment.
Treatments consisted of aminocyclopyrachlor in acid form and metsulfuron-methyl, each in water and applied alone or in combination. Spray solutions were prepared using an appropriate amount of dilution to form a 1 liter (L) aqueous spray solution with active ingredients in single and two-way combinations. Formulated compounds were applied to the plant material with a backpack sprayer equipped with 8003 flat fan nozzles calibrated to deliver 20 gallons per acre (gal/acre) or 187 liters per hectare (L/ha) at a spray height of 15 inches (38.1 centimeters (cm)) above the grass.
The treated plots and control plots were rated blind at various intervals after application. […]
Colby's equation was used to determine the seedhead-suppressant effects expected from the mixtures, as described above. The results were measured at 12 days after the first application of the compositions. […]

Compound: Nc1nc(C2CC2)nc(C(=O)O)c1Cl [Aminocyclopyrachlor, 6-amino-5-chloro-2-cyclopropylpyrimidine-4-carboxylic acid]
- Mean % seedhead suppression (Aminocyclopyrachlor alone, 70 g ae/ha): 5.0%

Compound: Metsulfuron-Methyl
- Mean % seedhead suppression (Metsulfuron-Methyl alone, 13 g ae/ha): 80.0%
